Data published in patent US4695545A, “Culture and process for producing A41030 antibiotics” (Eli Lilly and Company, priority 1984, dated 1987).
≈ marks a conversion by molar mass, not a printed value.

Assays:
[1] = Electrometric titration (pKa); format: physicochemical; settings: electrometric titration in 66% dimethylformamide in water; stated as possible
Text: Antibiotic A41030 factor A is a white, crystalline solid.

Solubility in solvents = format: physicochemical; settings: qualitative
Text: As many as seven antibiotic factors are recovered from the fermentation and are obtained as a mixture, the A41030 complex. It will be recognized that the ratio of the factors in the A41030 complex will vary, depending upon the fermentation conditions used. The individual factors A, B, C, D, E, F, and G are separated and isolated as individual compounds, as hereinafter described.

Propionibacterium acnes [2] = experiment: MIC against Propionibacterium acnes strains, 24-hour agar-dilution; format: cell-based
Text: Antibiotic A41030 factors A, B and C have been tested and found to be active against a genus of anaerobic bacteria identified as Propionibacterium acnes.

Clostridium difficile [3] = experiment: MIC anaerobic bacteria, agar-dilution; format: cell-based; settings: Clostridium difficile 2994; agar-dilution (Table 9)
Clostridium perfringens = format: cell-based; settings: Clostridium perfringens 81; agar-dilution
Clostridium septicum = experiment: MIC anaerobic bacteria, agar-dilution; format: cell-based; settings: Clostridium septicum 1128
Peptococcus prevoti = experiment: MIC anaerobic bacteria, agar-dilution; format: cell-based; settings: Peptococcus prevoti 1281
[4] = tested on: Peptostreptococcus anaerobius; experiment: MIC anaerobic bacteria, agar-dilution; format: cell-based; settings: Peptostreptococcus anaerobius 1428
[5] = tested on: Peptostreptococcus intermedius; experiment: MIC anaerobic bacteria, agar-dilution; format: cell-based; settings: Peptostreptococcus intermedius 1264
Propionibacterium acnes [6] = experiment: MIC anaerobic bacteria, agar-dilution; format: cell-based; settings: Propionibacterium acnes 79; agar-dilution (Table 9)
Bacteroides fragilis = experiment: MIC anaerobic bacteria, agar-dilution; format: cell-based
[7] = tested on: Bacteroides thetaiotaomicron; experiment: MIC anaerobic bacteria, agar-dilution; format: cell-based; settings: Bacteroides thetaiotaomicron 1438
[8] = tested on: Bacteroides melaninogenicus; experiment: MIC anaerobic bacteria, agar-dilution; format: cell-based; settings: Bacteroides melaninogenicus 2736
Bacteroides vulgatis = experiment: MIC anaerobic bacteria, agar-dilution; format: cell-based; settings: Bacteroides vulgatis 1211
Bacteroides corrodens = experiment: MIC anaerobic bacteria, agar-dilution; format: cell-based; settings: Bacteroides corrodens 1874
Fusobacterium symbiosum = experiment: MIC anaerobic bacteria, agar-dilution; format: cell-based; settings: Fusobacterium symbiosum 1470
[9] = tested on: Fusobacterium necrophorum; experiment: MIC anaerobic bacteria, agar-dilution; format: cell-based; settings: Fusobacterium necrophorum 6054A
Clostridium difficile [10] = experiment: MIC against Clostridium difficile strains, agar-dilution; format: cell-based
Text: The A41030 antibiotic factors A, B, C, D, E, F, and G, are also active against a number of strains of Clostridium difficile, as determined by the agardilution method.

Staphylococcus aureus = experiment: MIC aerobic bacteria, standard agar-dilution assay; format: cell-based; settings: Staphylococcus aureus S13E; agar-dilution, 24 hours
[11] = tested on: Staphylococcus epidermidis; experiment: MIC aerobic bacteria, standard agar-dilution assay; format: cell-based
Streptococcus pyogenes = experiment: MIC aerobic bacteria, standard agar-dilution assay; format: cell-based; settings: Streptococcus pyogenes C203, 24 hours
Streptococcus pneumoniae = experiment: MIC aerobic bacteria, standard agar-dilution assay; format: cell-based; settings: Streptococcus pneumoniae Park I, 24 hours
[12] = tested on: Streptococcus sp. Group D; experiment: MIC aerobic bacteria, standard agar-dilution assay; format: cell-based
Haemophilus influenzae = experiment: MIC aerobic bacteria, standard agar-dilution assay; format: cell-based
S. pyogenes = experiment: In vivo oral activity against S. pyogenes in mice
pseudorabies = format: cell-based
[13] = mice
Eubacterium aerofaciens = experiment: MIC anaerobic bacteria, agar-dilution; format: cell-based; settings: Eubacterium aerofaciens 1235
[14] = tested on: Peptococcus asaccharolyticus; experiment: MIC anaerobic bacteria, agar-dilution; format: cell-based; settings: Peptococcus asaccharolyticus 1302
Klebsiella pneumoniae = experiment: MIC aerobic bacteria, standard agar-dilution assay; format: cell-based; settings: Klebsiella pneumoniae X26, 24 hours
[15] = Staphylococcus epidermidis EPI2, 24 hours
[16] = Streptococcus sp. Group D 9960, 24 hours
[17] = Streptococcus sp. Group D X66, 24 hours

With `NC1C(=O)NC2Cc3ccc(c(Cl)c3)Oc3cc4cc(c3O)Oc3ccc(cc3Cl)C(O)C3NC(=O)C(NC(=O)C4NC(=O)C(NC2=O)c2cc(O)cc(c2)Oc2cc1ccc2O)c1cc(Cl)c(O)c(c1)-c1c(O)cc(O)cc1C(C(=O)O)NC3=O` (centres unmarked) [factor A, A41030 factor A] the “possibly additional pKa's” value [1] was greater than 10.5, the “solubility (solvents)” value (Solubility in solvents) was “soluble in alcohol-water mixtures, in dimethylsulfoxide, in dimethylformamide, in dimethylsulfoxide-water mixtures, in dimethylformamide-water mixtures, in dilute aqueous acid, and in dilute aqueous base” and the MIC (Propionibacterium acnes [2]; P. acnes strain 104) was 0.25 µg/mL (≈ 0.203 µM). For the same compound, the MIC (Propionibacterium acnes [2]; P. acnes strain 107) was 0.06 µg/mL (≈ 0.0486 µM), the MIC (Propionibacterium acnes [2]; P. acnes strain 5170) was no more than 0.03 µg/mL and the MIC (Propionibacterium acnes [2]; P. acnes strain 5176) was no more than 0.03 µg/mL. For the same compound, the MIC (Propionibacterium acnes [2]; P. acnes strain 5187) was no more than 0.03 µg/mL, the MIC (Propionibacterium acnes [2]; P. acnes strain 5197) was no more than 0.03 µg/mL and the MIC (Propionibacterium acnes [2]; P. acnes strain 5226) was 0.5 µg/mL (≈ 0.405 µM). The MIC (Propionibacterium acnes [2]; P. acnes strain 5227) was no more than 0.03 µg/mL, the MIC (Propionibacterium acnes [2]; P. acnes strain 5228) was 1.0 µg/mL (≈ 0.811 µM) and the MIC (Propionibacterium acnes [2]; P. acnes strain 5229) was 0.5 µg/mL (≈ 0.405 µM). It also gave an MIC (Propionibacterium acnes [2]; P. acnes strain 5246) of 0.06 µg/mL (≈ 0.0486 µM), an MIC (Propionibacterium acnes [2]; P. acnes strain 5292) of 0.06 µg/mL (≈ 0.0486 µM) and an MIC (Clostridium difficile [3]) of 32 µg/mL (≈ 25.9 µM). The MIC (Clostridium perfringens) was 0.5 µg/mL (≈ 0.405 µM), the MIC (Clostridium septicum) was 2 µg/mL (≈ 1.62 µM) and the MIC (Peptococcus prevoti) was no more than 0.25 µg/mL. It also gave an MIC [4] of no more than 0.25 µg/mL, an MIC [5] of 1.0 µg/mL (≈ 0.811 µM) and an MIC (Propionibacterium acnes [6]) of no more than 0.25 µg/mL. It also gave an MIC (Bacteroides fragilis; Bacteroides fragilis 1877) of 32 µg/mL (≈ 25.9 µM), an MIC (Bacteroides fragilis; Bacteroides fragilis 1936B) of 64 µg/mL (≈ 51.9 µM) and an MIC [7] of 64 µg/mL (≈ 51.9 µM). For the same compound, the MIC [8] was 4 µg/mL (≈ 3.24 µM), the MIC (Bacteroides vulgatis) was 32 µg/mL (≈ 25.9 µM) and the MIC (Bacteroides corrodens) was 64 µg/mL (≈ 51.9 µM). The MIC (Fusobacterium symbiosum) was 1.0 µg/mL (≈ 0.811 µM), the MIC [9] was 8 µg/mL (≈ 6.49 µM) and the MIC (Clostridium difficile [10]; Clostridium difficile 78) was 1.0 µg/mL (≈ 0.811 µM). The MIC (Clostridium difficile [10]; Clostridium difficile 107B) was 1.0 µg/mL (≈ 0.811 µM), the MIC (Clostridium difficile [10]; Clostridium difficile 111F) was 1.0 µg/mL (≈ 0.811 µM) and the MIC (Clostridium difficile [10]; Clostridium difficile 1153) was 1.0 µg/mL (≈ 0.811 µM). The MIC (Clostridium difficile [10]; Clostridium difficile 2634) was 1.0 µg/mL (≈ 0.811 µM), the MIC (Clostridium difficile [10]; Clostridium difficile 3424-5B) was 1.0 µg/mL (≈ 0.811 µM) and the MIC (Clostridium difficile [10]; Clostridium difficile 3816) was 1.0 µg/mL (≈ 0.811 µM). For the same compound, the MIC (Clostridium difficile [10]; Clostridium difficile 3950D) was 1.0 µg/mL (≈ 0.811 µM), the MIC (Clostridium difficile [10]; Clostridium difficile 6890) was 1.0 µg/mL (≈ 0.811 µM) and the MIC (Clostridium difficile [10]; Clostridium difficile 8484) was 1.0 µg/mL (≈ 0.811 µM). It also gave an MIC (Clostridium difficile [10]; Clostridium difficile A-194) of 1.0 µg/mL (≈ 0.811 µM), an MIC (Clostridium difficile [10]; Clostridium difficile A-195) of 1.0 µg/mL (≈ 0.811 µM) and an MIC (Clostridium difficile [10]; Clostridium difficile A-196) of 1.0 µg/mL (≈ 0.811 µM). For the same compound, the MIC (Clostridium difficile [10]; Clostridium difficile A-279) was 1.0 µg/mL (≈ 0.811 µM), the MIC (Clostridium difficile [10]; Clostridium difficile A-280) was 1.0 µg/mL (≈ 0.811 µM) and the MIC (Clostridium difficile [10]; Clostridium difficile A-281) was 1.0 µg/mL (≈ 0.811 µM). The MIC (Clostridium difficile [10]; Clostridium difficile WAL-2112) was 1.0 µg/mL (≈ 0.811 µM), the MIC (Clostridium difficile [10]; Clostridium difficile WAL-3657) was 1.0 µg/mL (≈ 0.811 µM) and the MIC (Clostridium difficile [10]; Clostridium difficile WAL-4268) was 1.0 µg/mL (≈ 0.811 µM). The MIC (Staphylococcus aureus) was 0.25 µg/mL (≈ 0.203 µM), the MIC [11, 15] was 1 µg/mL (≈ 0.811 µM) and the MIC (Streptococcus pyogenes) was 0.5 µg/mL (≈ 0.405 µM). The MIC (Streptococcus pneumoniae) was 0.5 µg/mL (≈ 0.405 µM), the MIC [12, 16] was 2 µg/mL (≈ 1.62 µM) and the MIC [12, 17] was 1 µg/mL (≈ 0.811 µM). For the same compound, the MIC (Haemophilus influenzae; Haemophilus influenzae 251, 24 hours) was 2 µg/mL (≈ 1.62 µM), the MIC (Haemophilus influenzae; Haemophilus influenzae Brun, 24 hours) was 8 µg/mL (≈ 6.49 µM) and the “in vivo oral activity” value (S. pyogenes) was greater than 300 mg./kg.×2. For the same compound, the “concentration at which activity in vitro was shown” value (pseudorabies) was 20 µg/mL, the LD50 [13] was greater than 300 mg/kg and the acute toxicity [13] was greater than 300 mg/kg.

In the case of A41030 factor G, the “solubility (solvents)” value (Solubility in solvents) is reported as “soluble in the same solvents as is factor A”, the MIC (Clostridium difficile [3]) is reported as 2 µg/mL and the MIC (Clostridium perfringens) is reported as 2 µg/mL. It also gave an MIC (Clostridium septicum) of 2 µg/mL, an MIC (Eubacterium aerofaciens) of 2 µg/mL and an MIC [14] of 1.0 µg/mL. It also gave an MIC (Peptococcus prevoti) of 2 µg/mL, an MIC [4] of no more than 0.5 µg/mL and an MIC [5] of 2 µg/mL. The MIC (Propionibacterium acnes [6]) was 1.0 µg/mL, the MIC (Bacteroides fragilis; Bacteroides fragilis 111) was 32 µg/mL and the MIC (Bacteroides fragilis; Bacteroides fragilis 1877) was 32 µg/mL. It also gave an MIC (Bacteroides fragilis; Bacteroides fragilis 1936B) of 64 µg/mL, an MIC [7] of 64 µg/mL and an MIC [8] of 64 µg/mL. For the same compound, the MIC (Bacteroides vulgatis) was 64 µg/mL, the MIC (Bacteroides corrodens) was 32 µg/mL and the MIC (Fusobacterium symbiosum) was 2 µg/mL. It also gave an MIC [9] of 2 µg/mL, an MIC (Clostridium difficile [10]; Clostridium difficile 78) of 1.0 µg/mL and an MIC (Clostridium difficile [10]; Clostridium difficile 107B) of 1.0 µg/mL. It also gave an MIC (Clostridium difficile [10]; Clostridium difficile 111F) of 1.0 µg/mL, an MIC (Clostridium difficile [10]; Clostridium difficile 1153) of 1.0 µg/mL and an MIC (Clostridium difficile [10]; Clostridium difficile 2634) of 1.0 µg/mL. The MIC (Clostridium difficile [10]; Clostridium difficile 3424-5B) was 1.0 µg/mL, the MIC (Clostridium difficile [10]; Clostridium difficile 3816) was 1.0 µg/mL and the MIC (Clostridium difficile [10]; Clostridium difficile 3950D) was 1.0 µg/mL. It also gave an MIC (Clostridium difficile [10]; Clostridium difficile 6890) of 1.0 µg/mL, an MIC (Clostridium difficile [10]; Clostridium difficile 8484) of 1.0 µg/mL and an MIC (Clostridium difficile [10]; Clostridium difficile A-194) of 1.0 µg/mL. It also gave an MIC (Clostridium difficile [10]; Clostridium difficile A-195) of 1.0 µg/mL, an MIC (Clostridium difficile [10]; Clostridium difficile A-196) of 1.0 µg/mL and an MIC (Clostridium difficile [10]; Clostridium difficile A-279) of 1.0 µg/mL. The MIC (Clostridium difficile [10]; Clostridium difficile A-280) was 1.0 µg/mL, the MIC (Clostridium difficile [10]; Clostridium difficile A-281) was 1.0 µg/mL and the MIC (Clostridium difficile [10]; Clostridium difficile WAL-2112) was 1.0 µg/mL. The MIC (Clostridium difficile [10]; Clostridium difficile WAL-3657) was 1.0 µg/mL, the MIC (Clostridium difficile [10]; Clostridium difficile WAL-4268) was 1.0 µg/mL and the MIC ([11]; Staphylococcus epidermidis EPI1, 24 hours) was 0.5 µg/mL. It also gave an MIC [11, 15] of 0.5 µg/mL, an MIC (Streptococcus pyogenes) of 2 µg/mL and an MIC (Streptococcus pneumoniae) of 2 µg/mL. The MIC [12, 16] was 4 µg/mL, the MIC [12, 17] was 4 µg/mL and the MIC (Haemophilus influenzae; Haemophilus influenzae 76, 24 hours) was 32 µg/mL. For the same compound, the MIC (Haemophilus influenzae; Haemophilus influenzae C.L., 24 hours) was 32 µg/mL and the MIC (Klebsiella pneumoniae) was 64 µg/mL.
